The test system of this experiment is different microbes. Briefly: agar plate disc-diffusion antimicrobial testing. The format is cell-based. The following applies: against different microbes; screened against gram-positive Bacillus cereus and Staphylococcus aureus, gram-negative Pseudomonas aeruginosa and Escherichia coli, fungi Aspergillus flavus and Chrysosporium keratinophilum. On the procedure: The agar plate disc-diffusion method was applied. Sterilized filter papers (6 mm in diameter) were wetted with 10 μL of a solution of 4-(4,5-bis(4-bromophenyl)-2-(4-methoxyphenyl)-1H-imidazol-1-yl)benzoic acid (V) to be tested, containing 10 mg/mL in DMSO, and the discs were allowed to air dry. The discs were then placed onto the surface of agar plates (nutrient agar for bacteria and Sabouraud's dextrose agar for fungi) seeded with the test organism. Each plate contained 15 mL of the agar medium, previously seeded with 0.2 mL of the broth culture of each organism pregrown for 18 hours. The plates were incubated at 37° C. for 48 hours, and 72 hours for fungi. The inhibition zones was measured in mm. Discs impregnated with DMSO were used as a control, and its inhibition zone was subtracted from the tested compound actual inhibition zone.
Background: In agar diffusion tests the substance spreads into inoculated agar from a disc or well.

In the case of `COc1ccc(-c2nc(-c3ccc(Br)cc3)c(-c3ccc(Br)cc3)n2-c2ccc(C(=O)O)cc2)cc1` [V, 4-(4,5-bis(4-bromophenyl)-2-(4-methoxyphenyl)-1H-imidazol-1-yl)benzoic acid], the antimicrobial activities result was “excellent antimicrobial activities”.

For the origin of these results see patent US11976046B1, “4-(4,5-bis(4-bromophenyl)-2-(4-methoxyphenyl)-1H-imidazol-1-yl)benzoic acid as an antimicrobial compound” (KING FAISAL UNIVERSITY, priority 2023, dated 2024).
